≈ marks a conversion by molar mass, not a printed value.
Assays:
[1] = Hygroscopicity / water re-absorption at controlled relative humidity (DVS); format: physicochemical
Description: The present invention is directed, inter alia, to crystalline forms of (R)—N-(4-(3-aminopiperidin-1-yl)-5-bromo-1H-pyrrolo[2,3-b]pyridin-3-yl)cyclopropanecarboxamide and salts, hydrates, and solvates thereof. The crystalline forms of the present invention can be identified by unique solid state signatures with respect to, for example, differential scanning calorimetry (DSC), X-ray powder diffraction (XRPD), and other solid state methods. Further characterization with respect to water or solvent content of the crystalline forms of the present invention can be gauged by any of the following methods for example, thermogravimetric analysis (TGA), DSC and the like. For DSC, it is known that the temperatures observed will depend upon sample purity, the rate of temperature change, as well as sample preparation technique and the particular instrument employed. Thus, the values reported herein relating to DSC thermograms can vary by about ±6° C. For desolvation events, DSC thermograms may vary by more than ±6° C. depending on instrument configuration and/or sample quantity. The values reported herein relating to DSC thermograms can also vary by about ±20 joules per gram. For XRPD, the relative intensities of the peaks can vary, depending upon the sample preparation technique, the sample mounting procedure and the particular instrument employed. Moreover, instrument variation and other factors can often affect the 2θ values. Therefore, the peak assignments of diffraction patterns can vary by about ±0.2 ° 2θ. The relative intensities of the reported peaks can also vary. For TGA, the features reported herein can vary by about ±5° C. The TGA features reported herein can also vary by about ±2% weight change due to, for example, sample variation. Further characterization with respect to hygroscopicity of the crystalline form can be gauged by, for example, dynamic vapor sorption (DVS). The DVS features reported herein can vary by about ±5% relative humidity. The DVS features reported herein can also vary by about ±5% weight change.
(R)—N-(4-(3-aminopiperidin-1-yl)-5-bromo-1H-pyrrolo[2,3-b]pyridin-3-yl)cyclopropanecarboxamide di-ethane sulfonic acid salt: (R)—N-(4-(3-aminopiperidin-1-yl)-5-bromo-1H-pyrrolo[2,3-b]pyridin-3-yl)cyclopropanecarboxamide di-ethanesulfonic acid salt hydrate was heated to 130° C. in a DSC apparatus and then cooled to room temperature. […] The physical properties of the non-solvated di-esylate salt of (R)—N-(4-(3-aminopiperidin-1-yl)-5-bromo-1H-pyrrolo[2,3-b]pyridin-3-yl)cyclopropanecarboxamide are summarized in Table 50 below.

[2] = Oral absorption of PiC formulations versus solution, preclinical pharmacokinetic study; format: in vivo; details: canines, 3 mg/kg, crossover
Description: Biological characteristics of (R)—N-(4-(3-aminopiperidin-1-yl)-5-bromo-1H-pyrrolo[2,3-b]pyridin-3-yl)cyclopropanecarboxamide free base (Form A) and maleate salt crystal forms: The oral absorption of the crystal forms described in Examples 4 and 27 as PiC formulations was investigated in a preclinical pharmacokinetic study conducted in canines using a reduced Latin square crossover design at 3 mg/kg to compare the solid formulations to a solution of (R)—N-(4-(3-aminopiperidin-1-yl)-5-bromo-1H-pyrrolo[2,3-b]pyridin-3-yl)cyclopropanecarboxamide.

[3] = Aqueous solubility; format: physicochemical
[4] = Abbreviated excipient compatibility study at 50° C. with 20% H2O added; format: physicochemical; details: 4 weeks, common diluents and disintegrants
Description: To further investigate the chemical properties of these crystal forms, an abbreviated excipient compatibility study was run at 50° C. with 20% H2O added. The excipients used in the study consisted of common diluents and disintegrants and the study was conducted over a period of 4 weeks.

[5] = Powder-in-Capsule (PiC) formulation stability; format: physicochemical; details: 15 mg in Size 0 hard gelatin capsules, 2-months at 5° C., ambient and accelerated conditions
Description: (§1) Chemical characteristics of (R)—N-(4-(3-aminopiperidin-1-yl)-5-bromo-1H-pyrrolo[2,3-b]pyridin-3-yl)cyclopropanecarboxamide free base (Form A) and maleate salt crystal forms: The stability of the crystal forms described in Examples 4 and 27 was measured neat as well as in a Powder-in-Capsule (PiC) formulation. The stability as neat powder was measured over a period of 1-year for the free base and 3-months for the maleate salt, under ambient (25° C./60% RH) and accelerated (40° C./75% RH) conditions. […] It should be noted that the maleate salt used in the neat powder stability study contained high levels (˜9% wt./wt.) of residual tetrahydrofuran (THF). The PiC stability using 15 mg of (R)—N-(4-(3-aminopiperidin-1-yl)-5-bromo-1H-pyrrolo[2,3-b]pyridin-3-yl)cyclopropanecarboxamide in Size 0 hard gelatin capsules was carried out over a period of 2-months at 5° C., ambient and accelerated conditions.

[6] = Neat powder stability under ambient (25° C./60% RH) and accelerated (40° C./75% RH) conditions; format: physicochemical
Description: as §1

Cl.Cl.N[C@@H]1CCCN(c2c(Br)cnc3[nH]cc(NC(=O)C4CC4)c23)C1 [Example 29, (R)—N-(4-(3-aminopiperidin-1-yl)-5-bromo-1H-pyrrolo[2,3-b]pyridin-3-yl)cyclopropanecarboxamide di-HCl salt]
DVS form conversion ([1]; above 80% RH): dihydrate form above 80% RH.
DVS hygroscopicity ([1]; below 80% RH): Non-hygroscopic below 80% RH. Converts to a crystalline

N[C@@H]1CCCN(c2c(Br)cnc3[nH]cc(NC(=O)C4CC4)c23)C1 [Form A, (R)—N-(4-(3-aminopiperidin-1-yl)-5-bromo-1H-pyrrolo[2,3-b]pyridin-3-yl)cyclopropanecarboxamide Form A]
Oral absorption [2]: no significant differences in absorption
solubility ([3]; 0.1N HCl, simulated gastric fluid): 49900 µg/mL (≈ 132 mM)
solubility ([3]; FasSIF pH 6.8): 2400 µg/mL (≈ 6.34 mM)
solubility ([3]; fessif, FedSIF pH 5): 10200 µg/mL (≈ 27 mM)
solubility ([3]; water, H2O): 120 µg/mL (≈ 0.317 mM)
Degradation with excipients ([4]; listed as free base): significant degradation with lactose and Ac-Di-Sol® (croscarmellose sodium)
Degradation with excipients ([4]; listed as free base Form A): more stable with excipients than the maleate salt
PiC stability [5]: did not cause any significant physical or chemical degradation
Stability as neat powder ([6]; 1-year, ambient (25° C./60% RH) and accelerated (40° C./75% RH)): very good stability with no chiral or achiral degradation observed under any condition

Br.Br.N[C@@H]1CCCN(c2c(Br)cnc3[nH]cc(NC(=O)C4CC4)c23)C1 [Example 30, (R)—N-(4-(3-aminopiperidin-1-yl)-5-bromo-1H-pyrrolo[2,3-b]pyridin-3-yl)cyclopropanecarboxamide di-HBr salt]
DVS hygroscopicity ([1]; below 80% RH): Non-hygroscopic below 80% RH. Upon desorption the solids

CCS(=O)(=O)O.CCS(=O)(=O)O.N[C@@H]1CCCN(c2c(Br)cnc3[nH]cc(NC(=O)C4CC4)c23)C1 [anhydrate, (R)—N-(4-(3-aminopiperidin-1-yl)-5-bromo-1H-pyrrolo[2,3-b]pyridin-3-yl)cyclopropanecarboxamide di-ethane sulfonic acid salt]
Water re-absorption ([1]; 80% RH): re-absorbs water at 80% RH

N[C@@H]1CCCN(c2c(Br)cnc3[nH]cc(NC(=O)C4CC4)c23)C1.O=C(O)/C=C\C(=O)O [maleate salt, Maleic acid salt of (R)—N-(4-(3-aminopiperidin-1-yl)-5-bromo-1H-pyrrolo[2,3-b]pyridin-3-yl)cyclopropanecarboxamide]
DVS hygroscopicity ([1]; at 80% RH): Non-hygroscopic
DVS weight gain ([1]; at 80% RH): 0.3 % wt./wt.
Oral absorption [2]: no significant differences in absorption
Aqueous Solubility ([3]; at pH ≦7): >10 at pH ≦7 mg/mL
Degradation with excipients [4]: significant degradation with all excipients investigated
PiC stability [5]: stable
Stability as neat powder ([6]; 3-months, ambient and accelerated conditions, material contained ~9% wt./wt. residual THF): very slight degradation under accelerated conditions
